Source: the NIST ThermoML archive (doi:10.1016/j.jct.2009.01.010)

Legend:
[1] = 298.15 K, 101 kPa, Liquid; for speed of sound: Linear variable-path acoustic interferometer; for mass density: Pycnometric method
[2] = refractive index (Na D-line) (dimensionless); details: 298.15 K; 101.33 kPa; Liquid; Abbe refractometer
[3] = xn = mol fraction of the nth substance listed; details: 298.15 K, 101 kPa, Liquid; for speed of sound: Linear variable-path acoustic interferometer; for mass density: Pycnometric method
[4] = refractive index (Na D-line) (dimensionless); xn = mol fraction of the nth substance listed; details: 298.15 K, 101 kPa, Liquid, Abbe refractometer

COCCOCCO [2-(2-methoxyethoxy)ethanol]
Details	mass density [kg/m3]	refractive index	speed of sound [m/s]
[1]	1016.95	–	1422.6
[2]	–	1.425	–

COCCOCCO [2-(2-methoxyethoxy)ethanol] + O
Details	mass density, [3] [kg/m3]	refractive index, [4]	speed of sound, [3] [m/s]
x1 = 0.013	1002.42	1.341	1546
x1 = 0.026	1008.21	1.349	1582
x1 = 0.051	1017.19	1.36	1640
x1 = 0.064	1021.22	1.366	1646.7
x1 = 0.074	1023.92	1.37	1662
x1 = 0.101	1029.24	1.378	1674
x1 = 0.15	1034.64	1.39	1674
x1 = 0.187	1035.66	1.396	1660
x1 = 0.305	1034.8	1.408	1606
x1 = 0.401	1031.91	1.412	1562
x1 = 0.506	1028.25	1.415	1514
x1 = 0.646	1024.01	1.418	1474
x1 = 0.766	1021.27	1.419	1454
x1 = 0.895	1018.65	1.422	1442
x1 = 1	1016.95	1.425	1422.6

CCOCCO [2-ethoxyethan-1-ol]
Details	mass density [kg/m3]	refractive index	speed of sound [m/s]
[1]	925.39	–	1302.5
[2]	–	1.4058	–

CCOCCO [2-ethoxyethan-1-ol] + O
Details	mass density, [3] [kg/m3]	refractive index, [4]	speed of sound, [3] [m/s]
x1 = 0.0092	996.93	1.3389	1541.3
x1 = 0.0177	997.02	1.3415	1553.1
x1 = 0.025	997.2	1.3442	1575.6
x1 = 0.0502	998.06	1.3542	1626.9
x1 = 0.0767	998.24	1.3628	1649.6
x1 = 0.1024	996.67	1.3709	1646.5
x1 = 0.183	988.37	1.3854	1567.6
x1 = 0.299	974.41	1.394	1517.4
x1 = 0.4058	963.11	1.3979	1458.1
x1 = 0.5059	954.22	1.4012	1415.2
x1 = 0.5996	947.01	1.4025	1385.7
x1 = 0.706	940.07	1.4039	1359.6
x1 = 0.8431	933.47	1.4046	1330.4
x1 = 0.8716	932.35	1.4049	1325.6
x1 = 1	925.39	1.4058	1302.5

COCCO [2-methoxyethan-1-ol]
Details	mass density [kg/m3]	refractive index	speed of sound [m/s]
[1]	960.23	–	1341.7
[2]	–	1.4002	–
